EC50 and change in vivo data for 24 compounds are collected here from patent US9133179B2, “2-methoxy-pyridin-4-yl-derivatives” (Actelion Pharmaceuticals Ltd., priority 2011, dated 2015).

Structures are written as SMILES.

The target of assay [1] is T1, human S1P1 (EDG1) receptor (Homo sapiens, UniProt P21453).
T1 construct: host or cells: U2OS (Tango EDG1-bla U2OS)
Description: S1P1 β-arrestin recruitment (Tango) assay to determine EC50 values. Format: cell-based. Particulars: Tango-EDG1 bla U2OS cells, 16 h incubation. The source says:
S1P1 β-Arrestin Recruitment (Tango) Assay to Determine EC50 Values
Upon ligand activation, G protein-coupled receptors (GPCR) trigger two pathways that independently transduce signals to the cell: one through heterotrimeric GTP-binding proteins (G proteins) and one through β-arrestins. Agonist-induced GPCRs recruit β-arrestin proteins, which then bind to the carboxy-terminal domain of ligand-activated GPCRs. The amount of β-arrestin recruitment can be used to assess the potency and efficacy of GPCR activating ligands.
To measure the potency and efficacy of compounds as S1P1 (EDG1) receptor agonists, Tango™-EDG1 bla U2OS cells (Invitrogen, USA, Catalog #K1520) are used. The Tango™ GPCR technology is based on GeneBLAzer β-lactamase reporter cell assays, which uses a mammalian-optimized β-lactamase reporter gene (bla) combined with a FRET-enabled substrate. The host cells, U2OS, stably express a human S1P1 (EDG1) receptor/transcription factor (TF) fusion protein. The cells also express a recombinant protease tagged β-arrestin protein, which is recruited to the S1P1 receptor upon ligand stimulation and specifically cleaves the S1P1-TF fusion protein. The released TF activates the β-lactamase (bla) reporter gene. To measure the reporter gene activity, cells are loaded with a fluorescent substrate containing two chemically coupled fluorophores, coumarin and fluorescein. […] In the presence of bla, the chemical bond is cleaved and FRET is inhibited. […] The amount of β-arrestin recruitment is proportional to the increase in blue fluorescence.
Tango™-EDG1 bla U2OS cells are cultivated in McCoy's 5A containing 10% dialyzed FBS, 0.1 mM NEAA, 25 mM HEPES, 1 mM sodium pyruvate, 1% Penicillin/Streptomycin, 200 μg/ml zeocin, 50 μg/ml hygromycin and 100 μg/ml geneticin (Invitrogen, USA). Cells are detached with trypsin, resuspended in medium and then counted.
Compounds (10 mM stock in DMSO) are diluted first in DMSO. The pre-diluted compounds solutions are then transferred into Assay Medium/0.1% fatty acid free BSA to reach a fourfold concentrated compound stock, which is applied to the cells to reach the final compound concentrations that range from 10 μM to 0.0005 nM (0.5% final DMSO). Cells are then incubated for 16 h at 37° C. and 5% CO2.

The subject of assay [2] is circulating lymphocytes. Description: Assessment of in vivo efficacy: circulating lymphocytes after oral administration to Wistar rats. On the set-up: species or system rat. To be noted: Rattus norvegicus, Lymphocyte; 6 h after oral administration of 10 mg/kg, normotensive male Wistar rats, compared to vehicle group; read-out: Lymphocyte counts. The method, then:
Assessment of In Vivo Efficacy
The efficacy of the compounds of Formula (I) is assessed by measuring the circulating lymphocytes after oral administration of 3 to 30 mg/kg of a compound of Formula (I) to normotensive male Wistar rats. The animals are housed in climate-controlled conditions with a 12 h-light/dark cycle, and have free access to normal rat chow and drinking water. […] Full blood is subjected to hematology using Advia Hematology system (Bayer Diagnostics, Zurich, Switzerland).
All data are presented as mean±SEM. Statistical analyses are performed by analysis of variance (ANOVA) using Statistica (StatSoft) and the Student-Newman-Keuls procedure for multiple comparisons. The null hypothesis is rejected when p<0.05.

T1 sequence (P21453 whole entry): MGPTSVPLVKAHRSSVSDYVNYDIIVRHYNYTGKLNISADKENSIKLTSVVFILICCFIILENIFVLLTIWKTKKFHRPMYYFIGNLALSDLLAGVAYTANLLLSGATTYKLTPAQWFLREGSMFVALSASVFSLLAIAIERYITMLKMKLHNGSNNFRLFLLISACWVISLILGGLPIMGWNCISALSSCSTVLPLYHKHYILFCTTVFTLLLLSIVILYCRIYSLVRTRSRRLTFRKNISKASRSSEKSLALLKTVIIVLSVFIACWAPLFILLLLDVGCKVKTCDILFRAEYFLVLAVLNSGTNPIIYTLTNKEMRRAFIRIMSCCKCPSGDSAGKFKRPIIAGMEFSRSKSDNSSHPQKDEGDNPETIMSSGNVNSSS

In the case of `CCc1cc(-c2noc(-c3cc(OC)nc(C4CCCC4)c3)n2)cc(C)c1OCCN1CCC(C(=O)O)C1` (racemic) [Example 8, rac-1-(2-(4-(5-(2-Cyclopentyl-6-methoxypyridin-4-yl)-1,2,4-oxadiazol-3-yl)-2-ethyl-6-methylphenoxy)ethyl)pyrrolidine-3-carboxylic acid], the response in assay [1] was half-maximal at 0.3 nM (EC50). In assay [2], the change in vivo at 10 mg/kg was -66%.

Take `CCc1cc(-c2noc(-c3cc(OC)nc(C4CCCC4)c3)n2)cc(C)c1OCCNCC(O)CO` (racemic) [Example 27, rac-3-((2-(4-(5-(2-Cyclopentyl-6-methoxypyridin-4-yl)-1,2,4-oxadiazol-3-yl)-2-ethyl-6-methylphenoxy)ethyl)amino)propane-1,2-diol]: the EC50 (commonly the concentration giving half of the maximal effect) in assay [1] was determined as 10.3 nM. Moreover, in assay [2], the change in vivo at 10 mg/kg is -42%.

In assay [1], `CCc1cc(-c2noc(-c3cc(OC)nc(C4CCCC4)c3)n2)cc(C)c1OCCCNCC(O)CO` (racemic) [Example 28, rac-3-((3-(4-(5-(2-Cyclopentyl-6-methoxypyridin-4-yl)-1,2,4-oxadiazol-3-yl)-2-ethyl-6-methylphenoxy)propyl)amino)propane-1,2-diol] came in with an EC50 of 25.6 nM.

In the case of `CCc1cc(-c2noc(-c3cc(OC)nc(C4CCCC4)c3)n2)cc(C)c1OC[C@@H](O)CNCC(=O)O` [Example 9, (S)-2-((3-(4-(5-(2-Cyclopentyl-6-methoxypyridin-4-yl)-1,2,4-oxadiazol-3-yl)-2-ethyl-6-methylphenoxy)-2-hydroxypropyl)amino)acetic acid], the EC50 in assay [1] worked out at 0.07 nM. The change in vivo at 10 mg/kg in assay [2] is -72%.

`CCc1cc(-c2noc(-c3cc(OC)nc(C4CCCC4)c3)n2)cc(C)c1OC[C@@H](O)CNCCC(=O)O` [Example 10] returned an EC50 in assay [1] of 0.06 nM. The change in vivo at 10 mg/kg in assay [2] is -51%.

On to `CCc1cc(-c2noc(-c3cc(OC)nc(C4CCCC4)c3)n2)cc(C)c1OC[C@@H](O)CN(C)CC(=O)O` [Example 11, (S)-2-((3-(4-(5-(2-Cyclopentyl-6-methoxypyridin-4-yl)-1,2,4-oxadiazol-3-yl)-2-ethyl-6-methylphenoxy)-2-hydroxypropyl)(methyl)amino)acetic acid], for which it took 0.2 nM to reach a half-maximal effect in assay [1] (EC50). Moreover, in assay [2], the change in vivo at 10 mg/kg was -60%.

With `CCc1cc(-c2noc(-c3cc(OC)nc(C4CCCC4)c3)n2)cc(C)c1OC[C@@H](O)CN1CC(C(=O)O)C1` [Example 12, (S)-1-(3-(4-(5-(2-Cyclopentyl-6-methoxypyridin-4-yl)-1,2,4-oxadiazol-3-yl)-2-ethyl-6-methylphenoxy)-2-hydroxypropyl)azetidine-3-carboxylic acid], a half-maximal effect in assay [1] (EC50) was put at 0.3 nM. For the same compound, in assay [2], the change in vivo at 10 mg/kg is -61%.

Consider `CCc1cc(-c2noc(-c3cc(OC)nc(C4CCCC4)c3)n2)cc(C)c1OC[C@@H](O)CNC(=O)CC(=O)O` [Example 14], for which a half-maximal response in assay [1] (EC50) required 0.03 nM. In other words, the picomolar range.

In the case of `CCc1cc(-c2noc(-c3cc(OC)nc(C4CCCC4)c3)n2)cc(C)c1OC[C@@H](O)CNC(=O)CCC(=O)O` [Example 15, (S)-4-((3-(4-(5-(2-Cyclopentyl-6-methoxypyridin-4-yl)-1,2,4-oxadiazol-3-yl)-2-ethyl-6-methylphenoxy)-2-hydroxypropyl)amino)-4-oxobutanoic acid], in assay [1], a half-maximal effect (EC50) was put at 0.02 nM. Further, the change in vivo at 10 mg/kg in assay [2] is -55%.

`CCc1cc(-c2noc(-c3cc(OC)nc(C4CCCC4)c3)n2)cc(C)c1OCCN(C)CC(=O)O` [Example 16, 2-((2-(4-(5-(2-Cyclopentyl-6-methoxypyridin-4-yl)-1,2,4-oxadiazol-3-yl)-2-ethyl-6-methylphenoxy)ethyl)(methyl)amino)acetic acid] showed an EC50 in assay [1] of 0.2 nM. Further, the change in vivo at 10 mg/kg in assay [2] is -75%.

Compound `CCc1cc(-c2noc(-c3cc(OC)nc(C4CCCC4)c3)n2)cc(C)c1OCCN(C)CCC(=O)O` [Example 17, 3-((2-(4-(5-(2-Cyclopentyl-6-methoxypyridin-4-yl)-1,2,4-oxadiazol-3-yl)-2-ethyl-6-methylphenoxy)ethyl)(methyl)amino)propanoic acid] registered an EC50 in assay [1] of 0.2 nM.

Regarding `CCc1cc(-c2noc(-c3cc(OC)nc(C4CCCC4)c3)n2)cc(C)c1OCCCNCCC(=O)O` [Example 19, 3-((3-(4-(5-(2-Cyclopentyl-6-methoxypyridin-4-yl)-1,2,4-oxadiazol-3-yl)-2-ethyl-6-methylphenoxy)propyl)amino)propanoic acid], in assay [1], the EC50 amounted to 0.4 nM.

`CCc1cc(-c2noc(-c3cc(OC)nc(C4CCCC4)c3)n2)cc(C)c1OCCCN1CC(C(=O)O)C1` [Example 22, 1-(3-(4-(5-(2-Cyclopentyl-6-methoxypyridin-4-yl)-1,2,4-oxadiazol-3-yl)-2-ethyl-6-methylphenoxy)propyl)azetidine-3-carboxylic acid]: the EC50 in assay [1] came to 2.95 nM. This EC50 lies about 7.4-fold higher than the previous one.

`CCc1cc(-c2noc(-c3cc(OC)nc(C4CCCC4)c3)n2)cc(C)c1OCCNCCO` [Example 23, 2-((2-(4-(5-(2-Cyclopentyl-6-methoxypyridin-4-yl)-1,2,4-oxadiazol-3-yl)-2-ethyl-6-methylphenoxy)ethyl)amino)ethanol] came in with an EC50 in assay [1] of 24.7 nM.

`CCc1cc(-c2noc(-c3cc(OC)nc(C4CCCC4)c3)n2)cc(C)c1OCCCNCCO` [Example 24, 2-((3-(4-(5-(2-Cyclopentyl-6-methoxypyridin-4-yl)-1,2,4-oxadiazol-3-yl)-2-ethyl-6-methylphenoxy)propyl)amino)ethanol]: the EC50 in assay [1] was 69 nM.

As for `CCc1cc(-c2noc(-c3cc(OC)nc(C4CCCC4)c3)n2)cc(C)c1OCCNC(CO)CO` [Example 25, 2-((2-(4-(5-(2-Cyclopentyl-6-methoxypyridin-4-yl)-1,2,4-oxadiazol-3-yl)-2-ethyl-6-methylphenoxy)ethyl)amino)propane-1,3-diol], the EC50 in assay [1] came out at 4.23 nM.

On to `CCc1cc(-c2noc(-c3cc(OC)nc(C4CCCC4)c3)n2)cc(C)c1OCCCNC(CO)CO` [Example 26, 2-((3-(4-(5-(2-Cyclopentyl-6-methoxypyridin-4-yl)-1,2,4-oxadiazol-3-yl)-2-ethyl-6-methylphenoxy)propyl)amino)propane-1,3-diol], for which the EC50 in assay [1] is 15.1 nM.

In turn, `COc1cc(-c2nc(-c3cc(Cl)c(OCCCNC(=O)CO)c(OC)c3)no2)cc(C2CCCC2)n1` [Example 38, N-(3-(2-Chloro-4-(5-(2-cyclopentyl-6-methoxypyridin-4-yl)-1,2,4-oxadiazol-3-yl)-6-methoxyphenoxy)propyl)-2-hydroxyacetamide] had an EC50 in assay [1] of 0.893 nM.

The compound `CCc1cc(-c2noc(-c3cc(OC)nc(C4CCCC4)c3)n2)cc(C)c1OCCCC(=O)NCCO` [Example 46, 4-(4-(5-(2-Cyclopentyl-6-methoxypyridin-4-yl)-1,2,4-oxadiazol-3-yl)-2-ethyl-6-methylphenoxy)-N-(2-hydroxyethyl)butanamide] had a 50% effective concentration (EC50) in assay [1] of 1.8 nM.

On to `CCc1cc(-c2nc(-c3cc(OC)nc(C4CCCC4)c3)no2)cc(C)c1OCCN(C)CC(=O)O` [Example 56, 2-((2-(4-(3-(2-Cyclopentyl-6-methoxypyridin-4-yl)-1,2,4-oxadiazol-5-yl)-2-ethyl-6-methylphenoxy)ethyl)(methyl)amino)acetic acid], for which the response in assay [1] was half-maximal at 0.1 nM (EC50).

Turning to `CCc1cc(-c2nc(-c3cc(OC)nc(C4CCCC4)c3)no2)cc(C)c1OCCN1CC(C(=O)O)C1` [Example 58, 1-(2-(4-(3-(2-Cyclopentyl-6-methoxypyridin-4-yl)-1,2,4-oxadiazol-5-yl)-2-ethyl-6-methylphenoxy)ethyl)azetidine-3-carboxylic acid], the EC50 in assay [1] came out at 0.2 nM.

As to `CCc1cc(-c2nnc(-c3cc(OC)nc(C4CCCC4)c3)o2)cc(C)c1OC[C@@H](O)CNCCO` [Example 64, (S)-1-(4-(5-(2-Cyclopentyl-6-methoxypyridin-4-yl)-1,3,4-oxadiazol-2-yl)-2-ethyl-6-methylphenoxy)-3-((2-hydroxyethyl)amino)propan-2-ol], in assay [1], the EC50 is 3 nM.

`CCc1cc(-c2nnc(-c3cc(OC)nc(C4CCCC4)c3)o2)cc(C)c1OC[C@@H](O)CNC(CO)CO` [Example 65]: in assay [1], the EC50 worked out at 0.7 nM.

As for `CCc1cc(-c2nnc(-c3cc(OC)nc(C4CCCC4)c3)o2)cc(C)c1OC[C@@H](O)CNC(=O)CCC(=O)O` [Example 66], the EC50 in assay [1] stood at 0.05 nM.
